Experimental data as given in US4127576A, “Nortropine-carbazate derivatives” (Egyt Gyogyszervegyeszeti Gyar, priority 1976, dated 1978).
Structures can show the parent of a compound that is named as a salt. Where two headings read alike, the source gives them in different places.

Key:
[1] = toxicity test on rats, observation for 7 days; details: rat, in vivo, po
Procedure: (§1) The toxicities and narcosis potentiating effects of the novel compounds having the general formula (I) were studied on rats weighing 120 to 150 g. In the toxicity tests the animals were kept under observation for 7 days. The narcosis potentiating effect was studied on animals treated with an intravenous dosage of 50 mg/kg of hexabarbital (5-/1-cyclohexenyl/-1',5-dimethylbarbituric acid), and the prolongation of sleeping period was recorded. A 150% prolongated of sleeping period in relation to the controls was regarded as positive response. The number of animals with positive responses was related to the total number of animals treated.

rats [2] = test: narcosis potentiating effect (prolongation of hexabarbital sleeping period); assay type: in vivo; details: Rattus norvegicus, po, read-out: ED50 (narcosis potentiating effect)
Procedure: as §1

rats [3] = test: hypermotility provoked with amphetamine in rats (method of Janssen); assay type: in vivo, rat
Procedure: The effect of 8-phenoxycarbonyl-3-hydrazinocarbonyloxy-nortropane exerted on the hypermotility provoked with amphetamine on rats was examined by the method of Janssen (Psychopharmacologia 1, 389- 392/1960/). The stimulation of central nervous system was provoked with subcutaneous dosages of 7.5 mg/kg of amphetamine. The tests were performed on groups each consisting of 10 rats.

mice [4] = test: hypermotility provoked with amphetamine in mice (light interruption); assay type: in vivo, mouse
Procedure: (§2) The effect of 8-phenoxycarbonyl-3-hydrazinocarbonyl-oxy-nortropane exerted on the motilities of mice was tested according to the method of Borsy et al. (Arch. Int. Pharmacodyn. 124, 1- 2/1960/). The compound was administered orally in dosages of 20 to 80 mg/kg.
The above test method was applied also to study how 8-phenoxycarbonyl-3-hydrazinocarbonyloxy-nortropane does influence the hypermotility provoked with amphetamine (2-amino-1-phenyl-propane). Amphetamine was administered subcutaneously to mice in dosages of 7.5 mg/kg.

mice [5] = test: effect on motility of mice (method of Borsy et al.); assay type: in vivo, mouse; details: oral, 20 to 80 mg/kg
Procedure: as §2

[6] = 0.9% saline 20 ml/kg s.c. + compound 40 mg/kg p.o., no amphetamine
[7] = compound 40 mg/kg p.o. + amphetamine 7.5 mg/kg s.c.
[8] = 0.9% saline 20 ml/kg p.o. + amphetamine 7.5 mg/kg s.c.

Work on `O=C(CCCN1CCC(O)(c2ccc(Cl)cc2)CC1)c1ccc(F)cc1` [Haloperidol, 4-(4-chlorophenyl/-4-hydroxy-piperidyl)-4'-fluoro-butyrophenone, reference compound] yielded an LD50 at 168 h [1] of 450 mg/kg and an ED50 (rats [2]) of 2.8 mg/kg.

In the case of `CCOC(=O)N1[C@@H]2CC[C@H]1C[C@@H](OC(=O)NN)C2` [Example 1, 8-Ethoxycarbonyl-3α-hydrazinocarbonyloxy-nortropane hydrochloride], the LD50 at 168 h [1] is reported as > 2000 mg/kg and the ED50 (rats [2]) is reported as 0.54 mg/kg.

Molecule `CN(C)CCCN1c2ccccc2Sc2ccc(Cl)cc21` [Chloropromazine, 2-chloro-10-/3-dimethylaminopropyl/-phenothiazine, reference compound] has an LD50 at 168 h [1] of 210 mg/kg and an ED50 (rats [2]; rats, hexabarbital 50 mg/kg i.v., 150% prolongation of sleeping period = positive response) of 4.7 mg/kg.

In the case of `NNC(=O)O[C@H]1C[C@H]2CC[C@@H](C1)N2C(=O)Oc1ccccc1` [Example 3, 8-Phenoxycarbonyl-3α-hydrazinocarbonyloxy-nortropane], the “Rearing (average)” value (rats [3]; [6]) is reported as 11.8, the “Triangle walked in (average)” value (rats [3]; [6]) is reported as 16.1 and the “Washing (average)” value (rats [3]; [6]) is reported as 3.3. For the same molecule, the “Rearing (average)” value (rats [3]; [7]) was 21.5, the “Triangle walked in (average)” value (rats [3]; [7]) was 14.5 and the “Washing (average)” value (rats [3]; [7]) was 0.6. For the same molecule, the LD50 at 168 h [1] was 5000 mg/kg, the “Light interruption (average)” value (mice [4]; amphetamine 7.5 mg/kg s.c. + compound 40 mg/kg p.o.) was 270 and the “Light interruption (average)” value (mice [4]; amphetamine 7.5 mg/kg s.c. + compound 80 mg/kg p.o.) was 175. The “inhibition of locomotor stimulating effect of amphetamine” value (mice [4]; mice, both dosages examined (40 and 80 mg/kg p.o.)) was “completely inhibited”, the ED50 (rats [2]) was 3 mg/kg and the influence on motility (mice [5]) was “did not influence the motilities”.

In the case of `CC(=O)N(NC(=O)OC1CC2CCC(C1)N2C(=O)Oc1ccccc1)C(C)=O` (stereo not drawn) [Example 14, 8-Phenoxycarbonyl-3α-(2',2'-diacetyl-hydrazinocarbonyloxy)-nortropane], the LD50 at 168 h [1] is reported as > 1200 mg/kg and the ED50 (rats [2]) is reported as 1 mg/kg.

For `CC(N)Cc1ccccc1` (stereo not drawn) [Amphetamine, 2-amino-1-phenyl-propane, reference compound], the “Rearing (average)” value (rats [3]; [8]) was 28.6, the “Triangle walked in (average)” value (rats [3]; [8]) was 28.5 and the “Washing (average)” value (rats [3]; [8]) was 2.7. For the same molecule, the “Light interruption (average)” value (mice [4]; amphetamine 7.5 mg/kg s.c. + 5% carboxymethylcellulose solution) was 583.
